In patent US8003695B2 (Chroma Therapeutics Ltd., priority 2006, dated 2011):

What was measured:
IKBKB (IKKβ) = biological target: T1, IKBKB (IKKβ) (Homo sapiens, UniProt O14920); test: IKKβ Enzyme Assay (Z'-LYTE, Invitrogen); format: biochemical; conditions: ATP at or close to Km; read-out: Inhibitor activity versus IKKβ
T1 construct: purchased Invitrogen (Paisley, UK)
T1 sequence (O14920 1-756): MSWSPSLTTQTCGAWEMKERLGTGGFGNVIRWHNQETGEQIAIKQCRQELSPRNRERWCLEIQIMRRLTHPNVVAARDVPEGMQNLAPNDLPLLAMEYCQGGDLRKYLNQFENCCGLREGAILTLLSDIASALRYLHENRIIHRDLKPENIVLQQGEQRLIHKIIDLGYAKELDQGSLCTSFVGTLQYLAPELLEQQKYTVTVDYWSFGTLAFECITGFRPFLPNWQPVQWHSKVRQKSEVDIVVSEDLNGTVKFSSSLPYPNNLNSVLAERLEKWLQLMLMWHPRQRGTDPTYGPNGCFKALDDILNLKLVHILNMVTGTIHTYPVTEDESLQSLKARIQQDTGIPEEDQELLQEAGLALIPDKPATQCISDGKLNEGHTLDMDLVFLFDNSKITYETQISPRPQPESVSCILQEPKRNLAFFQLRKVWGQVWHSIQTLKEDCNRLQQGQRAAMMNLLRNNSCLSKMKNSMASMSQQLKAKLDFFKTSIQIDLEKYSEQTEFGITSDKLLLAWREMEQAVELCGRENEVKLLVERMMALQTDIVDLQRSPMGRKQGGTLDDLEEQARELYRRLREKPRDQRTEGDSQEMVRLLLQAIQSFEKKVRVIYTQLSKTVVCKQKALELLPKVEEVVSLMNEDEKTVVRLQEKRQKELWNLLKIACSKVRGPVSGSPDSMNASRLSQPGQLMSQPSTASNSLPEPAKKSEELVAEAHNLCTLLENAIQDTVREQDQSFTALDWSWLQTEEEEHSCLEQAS
Procedure, shortened: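 Z'-LYTE FRET assay with 0.9-8.0 ng human IKBKB, 2 μM Ser/Thr 05 peptide and ATP at or near Km in HEPES pH 7.5, 60 min at room temperature, then 60 min development. Coumarin/fluorescein emission ratio read; duplicate nine-step ⅓-log series from 10 μM; IC50 from sigmoidal fit.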

THP-1 cells = test: LPS-Stimulation of THP-1 Cells, TNF-α release; format: cell-based; conditions: Homo sapiens, LPS 1 μg/ml, 6 hrs, read-out: Inhibitor activity versus THP-1 TNFα release
Protocol: LPS-Stimulation of THP-1 Cells
THP-1 cells were plated in 100 μl at a density of 4×10^4 cells/well in V-bottomed 96 well tissue culture treated plates and incubated at 37° C. in 5% CO2 for 16 hrs. 2 hrs after the addition of the inhibitor in 100 μl of tissue culture media, the cells were stimulated with LPS (E. coli strain 005:85, Sigma) at a final concentration of 1 μg/ml and incubated at 37° C. in 5% CO2 for 6 hrs. TNF-α levels were measured from cell-free supernatants by sandwich ELISA (R&D Systems #QTA00B)

human whole blood = test: LPS-Stimulation of Human Whole Blood, TNF-α release; format: cell-based; conditions: LPS 100 ng/ml, 6 hrs, read-out: Inhibitor activity versus human whole blood TNFα release
Protocol: LPS-Stimulation of Human Whole Blood
Whole blood was taken by venous puncture using heparinised vacutainers (Becton Dickinson) and diluted in an equal volume of RPMI1640 tissue culture media (Sigma). 100 μl was plated in V-bottomed 96 well tissue culture treated plates. 2 hrs after the addition of the inhibitor in 100 μl of RPMI1640 media, the blood was stimulated with LPS (E. coli strain 005:B5, Sigma) at a final concentration of 100 ng/ml and incubated at 37° C. in 5% CO2 for 6 hrs. TNF-α levels were measured from cell-free supernatants by sandwich ELISA (R&D Systems #QTA00B)

Row | SMILES | IC50 (IKBKB (IKKβ)) [nM] | IC50 (THP-1 cells) [nM] | IC50 (human whole blood) [nM]
1 | NC(=O)Nc1sc(-c2ccc(/C=C/CN[C@H](C(=O)OC3CCCC3)c3ccccc3)cc2)cc1C(N)=O [Example 41, Cyclopentyl (2S)-{[(2E)-3-{4-[4-carbamoyl-5-(carbamoylamino)-2-thienyl]phenyl}prop-2-en-1-yl]amino}(phenyl)acetate] | < 1000 | 1000 to 5000 | 1000 to 5000
2 | Cc1cc(/C=C/CN[C@@H](CC(C)C)C(=O)OC2CCCC2)ccc1-c1cc(C(N)=O)c(NC(N)=O)s1 [Example 33, Cyclopentyl N-[(2E)-3-{4-[4-carbamoyl-5-(carbamoylamino)thiophen-2-yl]-3-methylphenyl}prop-2-en-1-yl]-L-leucinate] | > 5000 | < 1000 | 1000 to 5000
3 | CC(C)(C)OC[C@H](NCc1cccc(-c2cc(C(N)=O)c(NC(N)=O)s2)c1)C(=O)OC1CCCC1 [Example 11, Cyclopentyl O-tert-butyl-N-{3-[4-carbamoyl-5-(carbamoylamino)thiophen-2-yl]benzyl}-L-serinate] | < 1000 | 1000 to 5000 | 1000 to 5000
4 | NC(=O)Nc1sc(-c2ccc(CN[C@H](C(=O)OC3CCCC3)c3ccccc3)cc2)cc1C(N)=O [Example 1, Cyclopentyl (2S)-({-4-[4-carbamoyl-5-(carbamoylamino)-2-thienyl]benzyl}amino)(phenyl)acetate] | 1000 to 5000 | 1000 to 5000 | 1000 to 5000
5 | CC(C)C[C@H](NCCc1cccc(-c2cc(C(N)=O)c(NC(N)=O)s2)c1)C(=O)OC1CCCC1 [Example 18, Cyclopentyl N-(2-{3-[4-carbamoyl-5-(carbamoylamino)-2-thienyl]phenyl}ethyl)-L-leucinate] | 1000 to 5000 | < 1000 | 1000 to 5000
6 | CC(C)C[C@H](NC/C=C/c1ccc(-c2cc(C(N)=O)c(NC(N)=O)s2)cc1Cl)C(=O)OC1CCCC1 [Example 32, Cyclopentyl N-[(2E)-3-{4-[4-carbamoyl-5-(carbamoylamino)thiophen-2-yl]-2-chlorophenyl}prop-2-en-1-yl]-L-leucinate] | 1000 to 5000 | < 1000 | 1000 to 5000
7 | NC(=O)Nc1sc(-c2ccc(CN[C@@H](C(=O)OC3CCCC3)c3ccccc3)cc2)cc1C(N)=O [Example 4, Cyclopentyl (2R)-({4-[4-carbamoyl-5-(carbamoylamino)-2-thienyl]benzyl}amino)(phenyl)acetate] | < 1000 | > 5000 | 1000 to 5000
8 | NC(=O)Nc1sc(-c2cccc(CCN[C@H](C(=O)OC3CCCC3)c3ccccc3)c2)cc1C(N)=O [Example 19, Cyclopentyl (2S)-[(2-{3-[4-carbamoyl-5-(carbamoylamino)-2-thienyl]phenyl}ethyl)amino](phenyl)acetate] | < 1000 | < 1000 | < 1000
9 | CC(C)C[C@H](NCc1cccc(-c2cc(C(N)=O)c(NC(N)=O)s2)c1)C(=O)OC1CCCC1 [Example 8, Cyclopentyl N-{3-[4-carbamoyl-5-(carbamoylamino)-2-thienyl]benzyl}-L-leucinate] | < 1000 | < 1000 | 1000 to 5000
10 | CC(C)C[C@H](NCc1cccc(-c2cc(C(N)=O)c(NC(N)=O)s2)c1)C(=O)OC(C)(C)C [Example 14, tert-Butyl N-{3-[4-carbamoyl-5-(carbamoylamino)-2-thienyl]benzyl}-L-leucinate] | < 1000 | < 1000 | 1000 to 5000
11 | C[C@@H](O)[C@H](NCc1cccc(-c2cc(C(N)=O)c(NC(N)=O)s2)c1)C(=O)OC1CCCC1 [Example 13, Cyclopentyl N-{3-[4-carbamoyl-5-(carbamoylamino)thiophen-2-yl]benzyl}-L-threoninate] | < 1000 | < 1000 | < 1000
12 | CC(C)C[C@H](NC/C=C/c1cccc(-c2cc(C(N)=O)c(NC(N)=O)s2)c1)C(=O)OC1CCCC1 [Example 49, Cyclopentyl N-[(2E)-3-{3-[4-carbamoyl-5-(carbamoylamino)-2-thienyl]phenyl}prop-2-en-1-yl]-L-leucinate] | < 1000 | < 1000 | < 1000
13 | NC(=O)Nc1sc(-c2cccc(CN[C@H](C(=O)OC3CCCC3)c3ccccc3)c2)cc1C(N)=O [Example 9, Cyclopentyl (2S)-({3-[4-carbamoyl-5-(carbamoylamino)-2-thienyl]benzyl}amino)(phenyl)acetate] | < 1000 | < 1000 | 1000 to 5000
14 | CC(C)C[C@H](NCCc1cc(-c2cc(C(N)=O)c(NC(N)=O)s2)ccc1F)C(=O)OC1CCCC1 [Example 22, Cyclopentyl N-(2-{5-[4-carbamoyl-5-(carbamoylamino)thiophen-2-yl]-2-fluorophenyl}ethyl)-L-leucinate] | 1000 to 5000 | 1000 to 5000 | 1000 to 5000
